Measured values as given in patent US5015742A, “Synthesis and elucidation of azamitosene and iminoazamitosene” (Arizona Board of Regents, priority 1990, dated 1991).
Entries after “also recorded” stand apart in the source; their conditions may differ.

Assays:
[1] = pKa by spectrophotometric titration; format: physicochemical; settings: water, 1.0 m kcl
Protocol: pKa constants were determined by spectrophotometric titration in μ=1.0 (KCl) aerobic aqueous solvent at 30°±0.2° C. with a Cary 15 outfitted with a titration cell. Acid dissociations from hydroquinones in strong base were measured under an argon atmosphere with Thunberg cuvettes. Details of the methodoloqy employed are found in a previous publication.

[2] = Aerobic oxidation (oxygen reactivity) of reduced species in aqueous buffer; format: physicochemical
Protocol: The oxygen reactivity of 19 and 20 was studied in aerobic buffers (μ=1.0, KCl) at 30° C. Both of these species are converted to the corresponding oxidized analogues, 2a and 1a, by first-order processes. Isolation studies and UV-visible spectra of completed reactions confirmed the formation of both analogues. As expected from the relative reduction potentials, the oxidation of 19 is slow enough to be studied up to pH=11 whereas the oxidation of 20 occurs at stopped-flow rates much above neutrality.
The profile for the oxidation of 19 is consistent with oxidation of both the neutral species (19) and the monoprotonated species (19H^+), see Scheme 5, below. [drawing 11] The rate law for the mechanism in Scheme 5 is found in Equation 5. […] The solid curve of Plot B in FIG. 3 was computer generated with equation 5 using the values of the constants shown in Scheme 5. Consistent with the proposed mechanism, the kinetically-determined value of Ka is nearly the same as the value determined spectrophotometrically (9.44, entry 11 of Table I). The greater oxygen reactivity of 19, compared to 19H^+, is consistent with the decreasing Em values (i.e., decreasing stability of the reduced species) observed in the Nernst Fit (Plot B, FIG. 2) at pH values>6.
(§1) Kinetic Studies of Hydrolysis. The hydrolytic studies of 2a and the reoxidation studies of 19 and 20 were carried out in aerobic aqueous buffer at 30.0°±0.2° C. A dimethyl sulfoxide stock of the compound to be studied was prepared fresh and 50 μl of this stock was added to 2.95 mL of buffer. In the cases of 19 and 20, the dimethyl sulfoxide stock was kept under a blanket of argon. The absorbance vs time data were obtained on a Perkin-Elmer 559 or a Lambda-3 UV-vis spectrophotometer and fit to a first-order rate law.

[3] = Two-electron reduction potentials by cyclic voltammetry and Nernst fit
Protocol: Quinone 1a and iminoquinone 2a two-electron reduction potentials were determined in anaerobic aqueous buffers (μ=1, NaClO4) at 25° C. over the pH range -1 to 10 employing conventional cyclic voltammetry. The working electrode was a graphite mull, the auxillary electrode was platinum, and the reference couple was Ag/AgCl.
The pKa values, with error limits, were determined. spectrophotometrically.
The determination of Em values was carried out with a BAS 27 voltammograph. Measurements were carried out in μ=1.0 (NaClO4) aqueous buffer at 25°-26° C. under an atmosphere of argon with a BAS Ag/AgCl gel electrode as reference. […] The midpoint potential Em was determined from the average of the anodic (Ep,a) and cathodic (Ep,c) potentials.
For each of the redox couples, 1a/20 and 2a/19, >20 Em determinations were made over the pH range studied. For each Em value of a couple, and Eo value was calculated from the Nernst equation substituted with the acid dissociation constants in Table I and the proton activity determined with a pH meter. The average of all Eo determinations was then substituted into the Nernst equation, with which the solid curve for the couple was generated.

[4] = test system: cloned human ovarian cancer cell lines; assay: Antitumor activity in cloned human ovarian cancer cell lines; format: cell-based
[5] = test system: cloned human colon cancer cell lines; assay: Antitumor activity in cloned human colon cancer cell lines; format: cell-based
[6] = test system: fresh human colon tumors; assay: Antitumor activity in fresh human colon tumors; format: cell-based
[7] = test system: fresh human ovarian tumors; assay: Antitumor activity in fresh human ovarian tumors; format: cell-based
[8] = syn/anti isomerization equilibrium (product study, thermodynamic cycles, NMR); format: physicochemical; settings: for K for syn/anti isomerization: aqueous buffer
Protocol: Below pH 7, the preparative reaction of pure syn 2a afforded a mixture of isomers; [syn 2a]/[anti 2a]=0.7 by ^1 H NMR. [drawing 5]
The K value (~1) for syn/anti isomerization of 2a in aqueous buffer was assessed from […] thermodynamic cycles and from a product study. The results of the product study indicate K=0.7. The two thermodynamic cycles shown in Scheme 4 indicate K=1 to 2. These thermodynamic cycles were constructed by considering that protonation of syn/anti 2a provides the same cationic species 2aH^+ and that acid dissociation from syn/anti 2a probably provides the same anionic species 2aH^-.
The thermoneutral syn/anti isomerization in aqueous buffer requires that the imino proton of anti 2a hydrogen bond to the nitrogen of the enolized acetamido group.
Product Isolation of syn 2a Reaction at pH 8. To a solution of 15 mg (0.058 mmol) of syn 2a in 1 mL of dimethyl sulfoxide was added 4 mL of pH 8 phosphate buffer. The reaction mixture was stirred at room temperature for 48 hours and then diluted with 10 mL of water and extracted 3× with 20 mL portions of chloroform. Concentration of the dried extracts (sodium sulfate) afforded 12 mg (80%) of a mixture of isomers: [syn/anti]=0.7 by ^1 H NMR.

[9] = Kinetics of hydrolysis and syn/anti isomerization in aqueous buffer; format: physicochemical; settings: for pKa: aqueous buffer
Description: Iminoquinone Fate in Aqueous Buffers. […] Outlined in Scheme 4 below, are the pertinent equilibria and hydrolytic reactions of 2a in aqueous buffer. Above pH 7, the predominate reaction is equilibrium formation of a syn/anti mixture of 2a by general acid/base catalyzed processes. Much below pH 7, the predominate reaction is acid-catalyzed hydrolysis of 2a to the corresponding quinone 1a.
The studies which led to the mechanism outlined in Scheme 4 will now be described. Both hydrolysis and the equilibrium isomerization of pure syn 2a or pure anti 2a are associated with an absorbance change at 320 nm. Plots of absorbance vs time obeyed a first-order rate law over the entire pH range studied. The kobsd values were dependent on the concentration of the buffers employed to hold pH over the range of pH=3 to 9. Lyate-dependent values of kobsd (klyate) were obtained by measuring kobsd values over a 10-fold range of buffer concentration at constant pH and then extrapolating to the klyate value at zero buffer concentration.
The rate law for the reaction of pure syn 2a, based on the mechanism shown in Scheme 4 below, is provided in Equation 1: [formula] wherein: k1, k-1, k2, k3, Ka4 and Ka5 are constants found in Scheme 4 and aH is the proton activity determined with a pH electrode. The first term of equation 1 pertains to the hydrolysis of 2aH^2+ under the conditions aH <Ka5, the second term pertains to hydrolysis of 2aH and third term pertains to the syn/anti equilibration. […] Consistent with the postulated mechanism, the kinetically-obtained value of pKa4 approximates the value obtained by spectrophotometric titration (2.6±0.3).
as §1

[10] = comparison or calibration value; cited from earlier work
[11] = N(4)-protonated species, 30° C., μ = 1.0 (KCl)
[12] = amide proton, 30° C., μ = 1.0 (KCl)
[13] = buffer-catalyzed syn/anti isomerization

CC(=O)Nc1c(C)c(O)c2c(nc3n2CCC3)c1N [compound 19, 6-Acetamido-5-amino-8-hydroxy-7-methyl-2,3-dihydro-1H-pyrrolo[1,2-a]benzimidazole]
pKa [1, 11]: 3.67 ± 0.16
pKa ([1]; dissociation of hydroxyl, amide and amine protons: 19^2- to 19^3-, approximated): > 15
pKa ([1]; dissociation of hydroxyl, amide and amine protons: 19^- to 19^2-, approximated): > 15
pKa ([1]; dissociation of hydroxyl, amide and amine protons: 19 to 19^-, approximated): > 15
pKa ([1]; protonated 5-amino group (19H^+), 30° C., μ = 1.0 (KCl)): 9.44
reoxidation rate relative to 20 ([2]; physiological pH): two orders of magnitude slower
fold slower oxidation than 20 ([2]; physiological pH (7.4)): about 100 ×
stability of reduced species in acid ([3]; acid solution): acid-stable

CC(=O)OC1CCn2c1nc1c2C(=O)C(C)=C(N2CC2)C1=O (centres unmarked) [1c, 6-(N-aziridinyl)-7-methyl-2,3-dihydro-1H-pyrrolo [1,2-a]benzimidazole 5,8-dione-3-Acetate]
antitumor activity [4]: potent antitumor agents
antitumor activity [5]: potent antitumor agents
antitumor activity [6]: potent antitumor agents
antitumor activity [7]: potent antitumor agents

CC(=O)NC1=C(C)C(=O)c2c(nc3n2CCC3)C1=N [syn 2a, 6-Acetamido-5-imino-7-methyl-2,3-dihydro-1H-pyrrolo[1,2-a]benzimidazol-8-one]
K for syn/anti equilibration ([8]; dimethyl sulfoxide-d6): 15
[syn]/[anti] ratio ([8]; preparative reaction of pure syn 2a, ^1 H NMR, pH 8 phosphate buffer, 48 hours): 0.7
completed hydrolysis, product by UV-visible spectra ([9]; pH 0 to pH 6): quantitative formation of 1a

CC(=O)NC1=C(C)C(=O)c2c(nc3n2CCC3)C1=O [1a, 6-Acetamido-7-methyl-2,3-dihydro-1H-pyrrolo [1,2-a]benzimidazole-5,8-dione]
pKa [1, 11]: 1.54 ± 0.06
pKa [1, 12]: 11.3 ± 0.13
Eo (reduction potential at pH=0) ([3]; couple 1a/20, Nernst fit): 612 mV (NHE)
hydrolytic stability, entire pH range studied ([9]; aqueous solution, pH range -1 to 10): hydrolytically stable

CC(=O)NC1=C(C)C(=O)c2c(nc3n2CCC3)C1=N [2a, syn/anti 6-Acetamido-5-imino-7-methyl-2,3-dihydro-1H-pyrrolo[1,2-a]benzimidazol-8-one]
pKa [1, 11]: < 0
pKa [1, 12]: 11.24 ± 0.01
pKa ([1]; protonated imino group (2aH^+), spectrophotometric, 30° C., μ = 1.0 (KCl)): 2.6 ± 0.3
K for syn/anti isomerization ([8]; overall): ~ 1
K for syn/anti isomerization ([8]; product study): 0.7
Eo (reduction potential at pH=0) ([3]; couple 2a/19, Nernst fit): 1.11 V (NHE)
E values of syn and anti isomers ([3]; cyclic voltammetry, syn versus anti): identical E values for both isomers
reduction potential versus quinone ([3]; iminoquinone compared with quinone analogue): much higher reduction potentials
hydrolytic stability much below pH 6 / in acid ([9]; acid, much below pH 6): rapidly hydrolyses; also recorded: rapidly hydrolyzed
pKa ([9]; acid dissociation of 2aH^+ (protonated imine), pH profile FIG. 1, read-out: pKa): ~2.5
pKa ([9]; acid dissociation of diprotonated 2a, pH profile FIG. 1, read-out: pKa): < 0
pKa ([9]; kinetically obtained, fit of equation 1, 30° C., read-out: pKa4): 3.4
hydrolytic stability below pH 6 [9]: extremely slow
k(acetate) [9, 13]: 0.0045 M⁻¹ s⁻¹
k(dibasic phosphate) [9, 13]: 0.000171 M⁻¹ s⁻¹
k(monobasic phosphate) [9, 13]: 0.000421 M⁻¹ s⁻¹
kga for acetic acid ([9]; general acid catalyzed hydrolysis, pH 3.5 to 6): 0.003 M⁻¹ s⁻¹
k3/Ka5 ([9]; hydrolysis of diprotonated 2a, fit of equation 1, 30° C.): 0.045 M⁻¹ s⁻¹
k2 (rate of water addition to 2aH^+) ([9]; hydrolysis of monoprotonated 2a, 30° C.): 0.048 s⁻¹
hydrolytic stability at pH values ≥7 ([9]; pH ≥7): hydrolytically stable
hydrolysis rate at pH 7.0 ([9]; pH=7.0, worked out from pKa and k2): 1.0×10^-6 s^-1
k1 + k-1 ([9]; syn/anti equilibration, lyate term, above pH 7, 30° C.): 1.03e-05 s⁻¹

N#CC1=C(C#N)C(=O)C(Cl)=C(Cl)C1=O [dichlorodicyanoquinone (DDQ), dichlorodicyanoquinone]
Eo [10]: 946 mV, NHE

CC(=O)Nc1c(C)c(O)c2c(nc3n2CCC3)c1O [compound 20]
pKa ([1]; 5-OH of hydroquinone, 30° C., μ = 1.0 (KCl)): 11.1
pKa ([1]; 8-OH of hydroquinone (20^- to 20^2-), 30° C., μ = 1.0 (KCl), approximated): > 14
pKa [1, 11]: 6.02 ± 0.2
pKa [1, 12]: > 14
oxidation rate above pH 7.5 ([2]; above pH 7.5): too fast to measure
oxidation rate of 20^- ([2]; assuming rate-determining oxidation of 20^-): 1566 s⁻¹

CC(=O)NC1=C(C)C(=O)c2c(nc3n2CCC3OC(C)=O)C1=N (racemic) [2b, syn/anti 6-Acetamido-5-imino-7-methyl-2,3-dihydro-1H-pyrrolo[1,2-a]benzimidazol-8-one-3-Acetate]
hydrolytic stability below pH 6 [9]: extremely slow

CC1=C(N2CC2)C(=O)c2nc3n(c2C1=O)CCC3OC(N)=O (centres unmarked) [1d, 6-N-Aziridinyl-7-methyl-2,3-dihydro-1H-pyrrolo [1,2-a]benzimidazole-5,8-dione-3-Carbamate]
antitumor activity [4]: potent antitumor agents
antitumor activity [5]: potent antitumor agents
antitumor activity [6]: potent antitumor agents
antitumor activity [7]: potent antitumor agents
